Results: ChEMBL document CHEMBL6115010, “Targeting glioma with heteroaromatic alkaloids: A review of potential therapeutics” (Bioorg Med Chem, 2025)
Converted amounts (≈) assume the structure as drawn.

How the values were obtained:
SF-268 = assay: Antiproliferative activity against human SF-268 cells assessed as inhibition of cell growth by MTT assay; type: functional; settings: read-out: ED50 (the source's name)
[1] = Cytotoxicity against rat RT-2 cells assessed as reduction in cell growth by measuring lethal concentration incubated for 24 hrs by MTT assay; type: functional; settings: RT2, read-out: LC50 (the source's name)
[2] = Cytotoxicity against rat RT-2 cells assessed as reduction in cell growth by measuring lethal concentration incubated for 72 hrs by MTT assay; type: functional; settings: RT2, read-out: LC50 (the source's name)
ECV-304 [3] = assay: Cytotoxicity against human ECV-304 cells assessed as reduction in cell growth by measuring lethal concentration incubated for 72 hrs by MTT assay; type: functional; settings: read-out: LC50 (the source's name)
ECV-304 [4] = assay: Cytotoxicity against human ECV-304 cells assessed as reduction in cell growth by measuring lethal concentration incubated for 24 hrs by MTT assay; type: functional; settings: read-out: LC50 (the source's name)
U-87 MG [5] = assay: Antiproliferative activity against human U-87 MG cells assessed as reduction in cell growth measured for 24 hrs by MTT assay; type: functional, cell-based, U-87MG ATCC
U-251 [6] = assay: Antiproliferative activity against human U-251MG cells assessed as reduction in cell growth measured for 24 hrs by MTT assay; type: functional, cell-based; settings: U-251, 24 h
[7] = Antiproliferative activity against human SWO-38cells assessed as reduction in cell growth measured for 24 hrs by MTT assay; type: functional, cell-based; settings: SWO-38, 24 h
CAKI-1 = assay: Antitumor activity against human CAKI-1 cells xenografted in BALB/c athymic nude mouse assessed as inhibition of tumor growth at 5 mg/kg, po administered 5 times per week and measured for 3 times per week for 42 days relative to control; type: functional; settings: CAKI-1, 1008 h, time 42 day, read-out: TGI
U-251 [8] = assay: Cytotoxicity against human U-251MG cells assessed as reduction in cell growth; type: functional, cell-based
U-251 [9] = assay: Antiproliferative activity against human U-251MG cells assessed as reduction in cell viability incubated for 48 hrs by SRB assay; type: functional, cell-based; settings: U-251, 48 h
M059J = assay: Cytotoxicity against human M059J cells assessed as reduction in cell viability incubated for 72 hrs by MTT assay; type: functional, cell-based
[10] = Cytotoxicity against human M059K cells assessed as reduction in cell viability incubated for 72 hrs by MTT assay; type: functional, cell-based
U-87 MG [11] = assay: Antiproliferative activity against human U-87 MG cells assessed as reduction in cell viability incubated for 72 hrs by WST-8 reagent based assay; type: functional, U-87MG ATCC
T98G [12] = assay: Antiproliferative activity against human T98G cells assessed as reduction in cell viability incubated for 72 hrs by WST-8 reagent based assay; type: functional
U-87 MG [13] = assay: Antitumor activity against human U-87 MG cells xenografted in BALB/c nude mouse model assessed as reduction in tumor volume at 40 mg/kg, ip administered twice a day for 4 days relative to control; type: functional, U-87MG ATCC; parameters: scale not given: the % may be the effect or the level left; settings: time 4 day
[14] = Inhibition of colony formation in human U-251MG cells assessed as reduction in number of cell clone measured after 14 days by crystal violet staining based microscopic analysis; type: functional; settings: 336 h
T98G [15] = assay: Inhibition of colony formation in human T98G cells assessed as reduction in number of cell clone measured after 14 days by crystal violet staining based microscopic analysis; type: functional; settings: 336 h
T98G [16] = assay: Anticancer activity against human T98G cells assessed as reduction in cell viability; type: functional, cell-based
U-251 [17] = assay: Cytotoxicity against human U-251MG cells assessed as reduction in cell growth incubated for 72 hrs by MTT assay; type: functional, cell-based; settings: U-251, 72 h
U-87 MG [18] = assay: Antitumor activity against human U-87 MG cells xenografted in BALB/c nude mouse assessed as reduction in tumor growth at 5 mg/kg, iv administered once daily for 16 days relative to control; type: functional, U-87MG ATCC; parameters: scale not given: the % may be the effect or the level left; settings: time 16 day
[19] = Anticancer activity against human U373 MG cells assessed as reduction in cell viability incubated for 72 hrs by MTT assay; type: functional, cell-based, U-373MG ATCC

O=C1N[C@@H]2C(=C[C@H](O)[C@@H](O)[C@H]2O)c2cc3c(c(O)c21)OCO3 [NARCICLASINE]
EC50 (SF-268): 0.021 µg/mL (≈ 0.0683 µM)

COc1ccc2cc1Oc1ccc(cc1)C[C@H]1c3cc(c(OC)cc3CCN1C)Oc1c(OC)c(OC)cc3c1[C@H](C2)N(C)CC3 [FANCHININ]
CC50 [1]: 22.6 µM
CC50 [2]: 11.3 µM
CC50 (ECV-304 [3]): 25.1 µM
CC50 (ECV-304 [4]): 34.2 µM
IC50 (U-87 MG [5]): 10.8 µg/mL (≈ 17.4 µM)
IC50 (U-251 [6]): 56.1 µg/mL (≈ 90.1 µM)
IC50 [7]: 50 µg/mL (≈ 80.4 µM)

COc1ccc2c3c(c4cc(OC)c(OC)cc4c2c1)C[C@H]1CCCN1C3 [(-)-ANTOFINE]
inhibition in vivo at 5 mg/kg (CAKI-1): 59%
IC50 (U-251 [8]): 0.211 µM

O[C@H]1[C@H]2c3cc4c(cc3CN3CCC(=C[C@@H]1O)[C@H]23)OCO4 [LYCORINE]
IC50 (U-251 [9]): 10 µM

COc1cc2c(cc1O)CCN[C@]21CS[C@@H]2c3c(OC(C)=O)c(C)c4c(c3[C@@H](COC1=O)N1[C@@H]2[C@H]2c3c(cc(C)c(OC)c3O)C[C@@H]([C@@H]1O)N2C)OCO4
IC50 (M059J): 0.041 nM
IC50 [10]: 0.0002 µM

COc1ccc(Cc2nccc3cc(OC)c(OC)cc23)cc1OC [PAPAVERINE]
EC50 (U-87 MG [11]): 42 µM
EC50 (T98G [12]): 42 µM
Activity (U-87 MG [13]): 63%
EC50 [14]: 11 µM
EC50 (T98G [15]): 4.5 µM
EC50 (T98G [16]): 3.1 µM

COc1ccc2c3c(c4cc(OC)c(OC)cc4c2c1)CN1CCC[C@H]1C3
IC50 (U-251 [17]): 3.34 µM
EC50 (U-87 MG [11]): 29 µM
EC50 (T98G [12]): 40 µM

O=C1c2ccccc2-[n+]2ccc3c([nH]c4ccccc43)c21 [FASCAPLYSIN]
Activity (U-87 MG [18]): 54.92%

COc1cc2c(cc1O)CCN[C@]21CS[C@@H]2c3c(OC(C)=O)c(C)c4c(c3[C@@H](COC1=O)N1[C@@H]2[C@H]2c3c(cc(C)c(OC)c3O)C[C@@H]([C@@H]1C#N)N2C)OCO4
IC50 [19]: 0.0031 µM
